# Measured values from patent publication US12570642B2, “GLP-IR modulating compounds” (Gilead Sciences, Inc., priority 2021, dated 2026).
# Molecular target: GLP-1R (Homo sapiens, UniProt P43220)
# Assay: GLP-1R Activation - cAMP Assay
# Type: cell-based
# Details: cAMP increase in CHO cells stably expressing GLP-1R; each compound run on one of the two cAMP assays (Assay 1 or Assay 2, not specified)
# In short: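 CHO cells stably expressing GLP-1R, plated at 1,000 cells/well overnight, then equilibrated 1 h in HBSS with 20 mM Hepes and 0.1% BSA. Agonist added as 10-point dose response for 30 min at 37 °C. cAMP measured by HTRF (Cisbio Gs Dynamic kit); EC50 from sigmoidal fit.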
# Sequence of GLP-1R (P43220 24-463): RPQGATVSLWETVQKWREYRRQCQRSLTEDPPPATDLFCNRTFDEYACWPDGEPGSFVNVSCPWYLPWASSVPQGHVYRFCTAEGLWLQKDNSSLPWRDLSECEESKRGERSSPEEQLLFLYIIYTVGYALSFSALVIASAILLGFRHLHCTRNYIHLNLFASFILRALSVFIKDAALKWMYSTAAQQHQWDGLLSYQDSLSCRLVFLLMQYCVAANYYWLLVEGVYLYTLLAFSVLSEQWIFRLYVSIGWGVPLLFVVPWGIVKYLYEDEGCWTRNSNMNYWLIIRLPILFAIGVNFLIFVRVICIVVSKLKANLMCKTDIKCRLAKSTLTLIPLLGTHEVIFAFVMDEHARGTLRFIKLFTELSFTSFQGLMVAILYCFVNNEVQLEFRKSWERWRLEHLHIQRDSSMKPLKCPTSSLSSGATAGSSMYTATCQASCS
row,EC50 [pM],Structure (SMILES)
1,67,"COc1cc(C#N)ccc1COc1cccc(-c2cc(F)c(Cc3nc4ccc(C(=O)O)cc4n3[C@@H]3COCC3(C)C)cc2F)n1 [Example 461, (S)-2-(4-(6-((4-cyano-2-methoxybenzyl)oxy)pyridin-2-yl)-2,5-difluorobenzyl)-1-(4,4-dimethyltetrahydrofuran-3-yl)-1H-benzo[d]imidazole-6-carboxylic acid]"
2,141,"COc1cc(Cl)ccc1COc1cccc(-c2cc(F)c(Cc3nc4ccc(C(=O)O)cc4n3[C@@H]3COCC3(C)C)cc2F)n1 [Example 462, (S)-2-(4-(6-((4-chloro-2-methoxybenzyl)oxy)pyridin-2-yl)-2,5-difluorobenzyl)-1-(4,4-dimethyltetrahydrofuran-3-yl)-1H-benzo[d]imidazole-6-carboxylic acid]"
3,209,"Cc1ccc(COc2cccc(-c3cc(F)c(Cc4nc5ccc(C(=O)O)cc5n4[C@@H]4COCC4(C)C)cc3F)n2)c(F)c1 [Example 463, (S)-2-(2,5-difluoro-4-(6-((2-fluoro-4-methylbenzyl)oxy)pyridin-2-yl)benzyl)-1-(4,4-dimethyltetrahydrofuran-3-yl)-1H-benzo[d]imidazole-6-carboxylic acid]"
4,172,"CC1(C)COC[C@H]1n1c(Cc2cc(F)c(-c3cccc(OCc4ccc(F)cc4Cl)n3)cc2F)nc2ccc(C(=O)O)cc21 [Example 464, (S)-2-(4-(6-((2-chloro-4-fluorobenzyl)oxy)pyridin-2-yl)-2,5-difluorobenzyl)-1-(4,4-dimethyltetrahydrofuran-3-yl)-1H-benzo[d]imidazole-6-carboxylic acid]"
5,180,"Cc1cc(F)ccc1COc1cccc(-c2cc(F)c(Cc3nc4ccc(C(=O)O)cc4n3[C@@H]3COCC3(C)C)cc2F)n1 [Example 465, (S)-2-(2,5-difluoro-4-(6-((4-fluoro-2-methylbenzyl)oxy)pyridin-2-yl)benzyl)-1-(4,4-dimethyltetrahydrofuran-3-yl)-1H-benzo[d]imidazole-6-carboxylic acid]"
6,124,"CC1(C)COC[C@H]1n1c(Cc2cc(F)c(-c3cccc(OCc4ccc(F)cc4F)n3)cc2F)nc2ccc(C(=O)O)cc21 [Example 466, (S)-2-(4-(6-((2,4-difluorobenzyl)oxy)pyridin-2-yl)-2,5-difluorobenzyl)-1-(4,4-dimethyltetrahydrofuran-3-yl)-1H-benzo[d]imidazole-6-carboxylic acid]"
7,77,"COC[C@H]1COC[C@H]1n1c(Cc2cc(F)c(-c3ccc(F)c(OCc4ccc(C#N)cc4)n3)cc2F)nc2ccc(C(=O)O)cc21 [Example 467, 2-(4-(6-((4-cyanobenzyl)oxy)-5-fluoropyridin-2-yl)-2,5-difluorobenzyl)-1-((3S,4S)-4-(methoxymethyl)tetrahydrofuran-3-yl)-1H-benzo[d]imidazole-6-carboxylic acid]"
8,118,"COC[C@H]1COC[C@H]1n1c(Cc2cc(F)c(-c3cccc(OCc4ccc(C#N)cc4)n3)cc2F)nc2ccc(C(=O)O)cc21 [Example 468, 2-(4-(6-((4-cyanobenzyl)oxy)pyridin-2-yl)-2,5-difluorobenzyl)-1-((3S,4S)-4-(methoxymethyl)tetrahydrofuran-3-yl)-1H-benzo[d]imidazole-6-carboxylic acid]"
9,1600,"CC1(C)COC[C@H]1n1c(Cc2cc(F)c(-c3cccc(OCc4ccc(Cl)cc4C(F)(F)F)n3)cc2F)nc2ccc(C(=O)O)cc21 [Example 469, (S)-2-(4-(6-((4-chloro-2-(trifluoromethyl)benzyl)oxy)pyridin-2-yl)-2,5-difluorobenzyl)-1-(4,4-dimethyltetrahydrofuran-3-yl)-1H-benzo[d]imidazole-6-carboxylic acid]"
10,1610,"CC1(C)COC[C@H]1n1c(Cc2cc(F)c(-c3cccc(OCc4ccc(C(F)(F)F)nn4)n3)cc2F)nc2ccc(C(=O)O)cc21 [Example 470, (S)-2-(2,5-difluoro-4-(6-((6-(trifluoromethyl)pyridazin-3-yl)methoxy)pyridin-2-yl)benzyl)-1-(4,4-dimethyltetrahydrofuran-3-yl)-1H-benzo[d]imidazole-6-carboxylic acid]"
11,41,"C[C@H]1COC[C@H]1n1c(Cc2cc(F)c(-c3ccc(F)c(OCc4ccc(Cl)cc4F)n3)cc2F)nc2ccc(C(=O)O)cc21 [Example 471, 2-(4-(6-((4-chloro-2-fluorobenzyl)oxy)-5-fluoropyridin-2-yl)-2,5-difluorobenzyl)-1-((3S,4R)-4-methyltetrahydrofuran-3-yl)-1H-benzo[d]imidazole-6-carboxylic acid]"
12,69,"C[C@H]1COC[C@H]1n1c(Cc2cc(F)c(-c3cccc(OCc4ccc(Cl)cc4F)n3)cc2F)nc2ccc(C(=O)O)cc21 [Example 472, 2-(4-(6-((4-chloro-2-fluorobenzyl)oxy)pyridin-2-yl)-2,5-difluorobenzyl)-1-((3S,4R)-4-methyltetrahydrofuran-3-yl)-1H-benzo[d]imidazole-6-carboxylic acid]"
13,601,"CC1(C)COC[C@H]1n1c(Cc2cc(F)c(-c3ccc(F)c(OCc4c(F)cccc4F)n3)cc2F)nc2ccc(C(=O)O)cc21 [Example 475, (S)-2-(4-(6-((2,6-difluorobenzyl)oxy)-5-fluoropyridin-2-yl)-2,5-difluorobenzyl)-1-(4,4-dimethyltetrahydrofuran-3-yl)-1H-benzo[d]imidazole-6-carboxylic acid]"
14,614,"CC1(C)COC[C@H]1n1c(Cc2cc(F)c(-c3cccc(OCc4c(F)cccc4F)n3)cc2F)nc2ccc(C(=O)O)cc21 [Example 476, (S)-2-(4-(6-((2,6-difluorobenzyl)oxy)pyridin-2-yl)-2,5-difluorobenzyl)-1-(4,4-dimethyltetrahydrofuran-3-yl)-1H-benzo[d]imidazole-6-carboxylic acid]"
15,171,"CC1(C)COC[C@H]1n1c(Cc2cc(F)c(-c3ccc(F)c(OCc4ccccc4F)n3)cc2F)nc2ccc(C(=O)O)cc21 [Example 477, (S)-2-(2,5-difluoro-4-(5-fluoro-6-((2-fluorobenzyl)oxy)pyridin-2-yl)benzyl)-1-(4,4-dimethyltetrahydrofuran-3-yl)-1H-benzo[d]imidazole-6-carboxylic acid]"
16,250,"CC1(C)COC[C@H]1n1c(Cc2cc(F)c(-c3cccc(OCc4ccccc4F)n3)cc2F)nc2ccc(C(=O)O)cc21 [Example 478, (S)-2-(2,5-difluoro-4-(6-((2-fluorobenzyl)oxy)pyridin-2-yl)benzyl)-1-(4,4-dimethyltetrahydrofuran-3-yl)-1H-benzo[d]imidazole-6-carboxylic acid]"
17,249,"CC1(C)COC[C@H]1n1c(Cc2c(F)cc(-c3ccc(F)c(OCc4ccc(C#N)cc4F)n3)c(F)c2F)nc2c(F)cc(C(=O)O)cc21 [Example 479, (S)-2-(4-(6-((4-cyano-2-fluorobenzyl)oxy)-5-fluoropyridin-2-yl)-2,3,6-trifluorobenzyl)-1-(4,4-dimethyltetrahydrofuran-3-yl)-4-fluoro-1H-benzo[d]imidazole-6-carboxylic acid]"
18,223,"C[C@H]1COC[C@H]1n1c(Cc2cc(F)c(-c3ccc(F)c(OCc4ccc(C#N)cc4)n3)cc2F)nc2ccc(C(=O)O)cc21 [Example 480, 2-(4-(6-((4-cyanobenzyl)oxy)-5-fluoropyridin-2-yl)-2,5-difluorobenzyl)-1-((3S,4R)-4-methyltetrahydrofuran-3-yl)-1H-benzo[d]imidazole-6-carboxylic acid]"
19,883,"C[C@H]1COC[C@H]1n1c(Cc2cc(F)c(-c3ccc(F)c(OCc4cc(F)c(C#N)cc4F)n3)cc2F)nc2ccc(C(=O)O)cc21 [Example 481, 2-(4-(6-((4-cyano-2,5-difluorobenzyl)oxy)-5-fluoropyridin-2-yl)-2,5-difluorobenzyl)-1-((3S,4R)-4-methyltetrahydrofuran-3-yl)-1H-benzo[d]imidazole-6-carboxylic acid]"
20,11,"CC1(C)COC[C@H]1n1c(Cc2c(F)cc(-c3ccc(F)c(OCc4ccc(C#N)cc4F)n3)c(F)c2F)nc2ccc(C(=O)O)cc21 [Example 482, (S)-2-(4-(6-((4-cyano-2-fluorobenzyl)oxy)-5-fluoropyridin-2-yl)-2,3,6-trifluorobenzyl)-1-(4,4-dimethyltetrahydrofuran-3-yl)-1H-benzo[d]imidazole-6-carboxylic acid]"
21,22,"CC1(C)COC[C@H]1n1c(Cc2cc(F)c(-c3ccc(F)c(OCc4cc(F)c(C#N)cc4F)n3)cc2F)nc2c(F)cc(C(=O)O)cc21 [Example 483, (S)-2-(4-(6-((4-cyano-2,5-difluorobenzyl)oxy)-5-fluoropyridin-2-yl)-2,5-difluorobenzyl)-1-(4,4-dimethyltetrahydrofuran-3-yl)-4-fluoro-1H-benzo[d]imidazole-6-carboxylic acid]"
22,155,"C[C@H]1COC[C@H]1n1c(Cc2cc(F)c(-c3ccnc(OCc4ccc(Cl)cc4F)n3)cc2F)nc2ccc(C(=O)O)cc21 [Example 484, 2-(4-(2-((4-chloro-2-fluorobenzyl)oxy)pyrimidin-4-yl)-2,5-difluorobenzyl)-1-((3S,4R)-4-methyltetrahydrofuran-3-yl)-1H-benzo[d]imidazole-6-carboxylic acid]"
23,203,"COCCn1c(Cc2c(F)cc(-c3ccc(F)c(OCc4ccc(Cl)cc4F)n3)c(F)c2F)nc2c(F)cc(C(=O)O)cc21 [Example 485, 2-(4-(6-((4-chloro-2-fluorobenzyl)oxy)-5-fluoropyridin-2-yl)-2,3,6-trifluorobenzyl)-4-fluoro-1-(2-methoxyethyl)-1H-benzo[d]imidazole-6-carboxylic acid]"
24,54,"C[C@H]1COC[C@H]1n1c(Cc2cc(F)c(-c3ccc(F)c(OCc4ccc(C#N)cc4F)n3)cc2F)nc2ccc(C(=O)O)cc21 [Example 486, 2-(4-(6-((4-cyano-2-fluorobenzyl)oxy)-5-fluoropyridin-2-yl)-2,5-difluorobenzyl)-1-((3S,4R)-4-methyltetrahydrofuran-3-yl)-1H-benzo[d]imidazole-6-carboxylic acid]"
